Consider two compounds from US20190297890A1, “FUNGICIDAL COMPOUNDS AND MIXTURES FOR FUNGAL CONTROL IN CEREALS” (Dow AgroSciences LLC, priority 2016, published 2019).

The subject of this test is Zymoseptoria tritici (SEPTTR). Kind of test: Field assessment of Zymoseptoria tritici (SEPTTR) in wheat, three field trials. Type of test: in vivo, Zymoseptoria tritici on winter wheat (TRZAW). Particulars: average over 3 field trials. The source says:
Treatments consisted of the compound of Formula I and chlorothalonil either using individually or as a two-way mixture with the compound of Formula I. The compound of Formula I was applied with Agnique BP-420 (50% w/w at 0.3% v/v) at 75 and 150 g ai/ha and chlorothalonil (Bravo 500) was applied at 375 and 500 g ai/ha. Commercial standards used in the studies were Fluxapyroxad (Imtrex), applied at 100 g ai/ha, and Metconazole+Fluxapyroxad (Librax), applied at 161 g ai/ha.
Field Assessment of Zymoseptoria tritici (SEPTTR) in Wheat:
Fungicidal treatments containing the compound of Formula I and chlorothalonil, either individually or as a two way mixture, were assessed against leaf spot of wheat (SEPTTR) in three separate field trials. In the first trial, fungicidal treatments were applied at BBBCH37 (curative, 3% infection at application on L3) growth stage of winter wheat (TRZAW, Dinosor variety) under naturally occurring infection with SEPTTR. The treatments were part of an experimental trial designed as a randomized complete block with four replications and a plot of approximately 1×6 m. Treatments were applied at water volume of 200 L/ha, using a backpack plot sprayer (BKPCKENG, FLATFANA nozzle) and pressurized at 200 kPa.
In the second trial, fungicidal treatments were applied twice at BBCH32 (curative, 25% infection at application on L5) and BBBCH37-39 (5% infection at application on L3) growth stages of winter wheat (TRZAW, Consort variety) under naturally occurring infection with SEPTTR. The treatments were part of an experimental trial designed as a randomized complete block with four replications and a plot of approximately 1×2 m. Treatments were applied at water volume of 200 L/ha, using a backpack plot sprayer (BKPCKAIR, Flat fan nozzle) and pressurized at 210 kPa.
In the final trial, fungicidal treatments were applied twice at BBCH32 (protective, 15% infection at application on L6) and BBBCH37-39 (12% infection at application on L5) growth stages of winter wheat (TRZAW, Smaragd variety) under naturally occurring infection with SEPTTR. […]
Disease severity (percentage of visual diseased foliage on whole plot or leaves) in […] was recorded following EPPO PP1/26 guideline prescriptions. Area under the disease progress curve (AUDPC) was calculated for each plot in both trials using the sets of recorded severity data. Relative AUDPC (% control based on AUDPC) was calculated as percent of the nontreated control. Final results for the control of leaf spot of wheat by the compound of Formula I, chlorothalonil, and mixtures are reported as an average of the relative AUDPC calculated over all three field trials. […]

With `N#Cc1ccc(Oc2ccc(C(F)(F)C(O)(Cn3nc[nH]c3=S)c3ccc(F)cc3F)nc2)cc1` (stereo not shown) [Compound I, 4-((6-(2-(2,4-difluorophenyl)-1,1-difluoro-2-hydroxy-3-(5-thioxo-4,5-dihydro-1H-1,2,4-triazol-1-yl)propyl)pyridin-3-yl)oxy)benzonitrile], the “SEPTTR % Control based on AUDPC” value by setting is: (75 g ai/ha, with Agnique BP-420 (50% w/w at 0.3% v/v)) 61.2%; (150 g ai/ha, with Agnique BP-420 (50% w/w at 0.3% v/v)) 72.2%.
As to `N#Cc1c(Cl)c(Cl)c(Cl)c(C#N)c1Cl` [Chlorothalonil, tetrachloroisophthal-onitrile], the “SEPTTR % Control based on AUDPC” value is, setting by setting: (375 g ai/ha) 31.8%; (500 g ai/ha) 37.8%.
